This is an account of results in patent US20060100190A1, “Motexafin lutetium phototherapy with low fluences for treating vascular inflammation” (Pharmacyclics, Inc., priority 2004, published 2006).

For assay [1], the system named is Watanabe Heritable Hyperlipidemic (WHHL) rabbits. Nature of the assay: MLu phototherapy (732 nm, low fluences) of aortic atheroma in cholesterol-fed WHHL rabbits. The class given is in vivo, rabbit. The text has this:
FIG. 1 depicts treated segments of the rabbit aortic tree. In each rabbit, both T1 and T2 segments were about 30 mm in length with another 30 mm of buffer in between. Both T1 and T2 received the same fluence (J/cmf) at different fluence rates (mW/cmf) because T1 illumination period was shorter at 400 seconds compared to 900 seconds for T2.
Thirty 8 months old male Watanabe Heritable Hyperlipidemic (WHHL) rabbits were randomized after 3 weeks of 1% cholesterol feeding to either control or MLu groups (10 mg/kg, iv via ear vein). Intravascular illumination was performed 24 hours post-MLu using a fiber with a 30 mm active diffuser tip to deliver escalating fluences (30-175 J/cmf, 732 nm) for 400 s (upper) and 900 s (lower thoracic/abdominal aorta); control received no light. Rabbits were then switched to a normal diet immediately after phototherapy and sacrificed 3 weeks later. Aortas were harvested and examined for plaque (I/M ratios), Mac (RAM11), smooth muscle cell (myosin) and collagen (Picrosirius Red) changes.

Assay [2] concerns Fat-fed New Zealand rabbits. The assay can be described thus: MLu phototherapy at low light fluence in fat-fed New Zealand rabbits. Format: in vivo, rabbit. The following applies: PT at 732 nm, low light fluence 30-100 J/cmf. The text has this: The methods, compositions, strategies and techniques described herein include processes to treat diffuse inflammation in blood vessels by administering a photo-activatable compound and low light fluence in the range of in the range of about 10 to about 400 Joules/cm of illuminated length in the general vicinity of the inflammation.

Another assay deals with atheroma. The settings on record: reported; cited from earlier work.

Regarding `CC(=O)[O-].CC(=O)[O-].CCc1c(CC)c2cc3nc(cnc4cc(OCCOCCOCCOC)c(OCCOCCOCCOC)cc4ncc4nc(cc1[n-]2)C(CCCO)=C4C)C(C)=C3CCCO.O.[Lu+3]` [MLu, motexafin lutetium], the macrophages in plaques result in assay [1] (30-175 J/cmf delivered over 400 s and 900 s) is listed as “macrophage depletion”. For the same compound, the macrophage burden result in assay [1] (all tested fluence groups (30-175 J/cmf) vs. control, p<0.05, both T1 and T2 treated segments) is given as “statistical significant reduction in macrophage burden”. The “collagen (picrosirius red, bright-field and polarization microscopy)” value in assay [1] (treated 30 J/cmf, 400 s vs. control) is on record as “denser packing of matured collagen”. The “smooth muscle cell (SMC) content, histology of myosin-stained areas” value in assay [1] (treated 30 J/cmf, 400 s vs. control (non-phototherapy)) was “did not appear to decrease”. Also, in assay [1] (treated sections, 30 J/cmf, 400 s, control 43.1±3.8%), the “SMC content (myosin positive areas), planimetry, % of the intima” value was 50.9±9.7%. Also, the “diffuse inflammation in blood vessels (based on decrease in macrophage burden)” value in assay [2] was “significant reduction in diffuse inflammation”. Moreover, the “effect on macrophages (Mac) following phototherapy (PT)” value in the assay with atheroma is “destroys Mac by inducing apoptosis”.
